# Counter-ions that a name gives are not always drawn.
# Tested on: HCT116
# Details: 72 h
# In short: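 Luminescence was read with CellTiter-Glo in HCT116 cells seeded at 250 per well in 1536-well plates. Signals were scaled between vehicle at 0% and positive control at -100%, then pattern-corrected. IC50 and maximal efficacy were obtained by fitting a four-parameter Hill equation.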
IC50 cell viability (ICRF193 0 nM) [µM],IC50 cell viability (ICRF193 200 nM) [µM],SMILES
> 45.8,> 45.8,CC/C=C\C/C=C\C/C=C\C/C=C\C/C=C\CCCC(=O)O [Eicosapentaenoic Acid]
> 45.8,> 45.8,O=C1[C@@H]2[C@H]3CC[C@H](C3)[C@@H]2C(=O)N1CCCCN1CCN(c2ncccn2)CC1 [Tandospirone]
> 45.8,> 45.8,C[C@@H]1CN(c2c(F)c(N)c3c(=O)c(C(=O)O)cn(C4CC4)c3c2F)C[C@H](C)N1 [Sparfloxacin]
> 45.8,> 45.8,O=C(O[C@H]1[C@H](OC(=O)c2cccnc2)[C@@H](OC(=O)c2cccnc2)[C@H](OC(=O)c2cccnc2)[C@@H](OC(=O)c2cccnc2)[C@H]1OC(=O)c1cccnc1)c1cccnc1 [INOSITOL NIACINATE]
> 45.8,> 45.8,CC(=O)Oc1ccccc1C(=O)O [Aspirin]
> 45.8,> 45.8,Nc1nc(-n2cc(C(=O)O)c(=O)c3cc(F)c(N4CC(O)C4)c(Cl)c32)c(F)cc1F [Delafloxacin (meglumine)]
> 45.8,> 45.8,CCCCCCCCCCCCCCCCCC(=O)OCCO [2-Hydroxyethyl octadecanoate]
> 45.8,> 45.8,CC(C)(C)CC(=O)OCC(=O)[C@@]12OC(C)(C)O[C@@H]1C[C@H]1[C@@H]3CCC4=CC(=O)C=C[C@]4(C)[C@@]3(F)[C@@H](O)C[C@@]12C [Triamcinolone hexacetonide]
> 45.8,> 45.8,COC1=C(C(=O)O)N2C(=O)[C@@H](NC(=O)[C@H](N)C3=CCC=CC3)[C@H]2SC1 [Cefroxadine]
> 45.8,> 45.8,C[N+]1(CCCCC[N+]2(C)CCCC2)CCCC1 [Pentolinium bitartrate]
> 45.8,> 45.8,O=C(Nc1ccc(O)cc1)c1ccccc1O [2-Hydroxy-N-(4-hydroxyphenyl)-benzamide]
> 45.8,> 45.8,Cc1nc(C)c(Cl)c(O)c1Cl [Clopidol]
> 45.8,> 45.8,CC(=O)O[C@]1(C(C)=O)CC[C@H]2[C@@H]3C=C(C)C4=CC(=O)CC[C@]4(C)[C@H]3CC[C@@]21C [Megestrol acetate]
> 45.8,> 45.8,C/N=C(\NC)NCc1ccccc1 [Bethanidine sulfate (2:1)]
> 45.8,> 45.8,C[C@H]1COc2c(N3CCN(C)CC3)c(F)cc3c(=O)c(C(=O)O)cn1c23 [Levofloxacin]
> 45.8,> 45.8,CCCCCOc1ccc(C2SC(=O)NC2=O)cc1OCC (stereo not drawn) [Risarestat]
> 45.8,> 45.8,NCCNCCNCCN [Triethylenetetramine]
> 45.8,> 45.8,O=C(Oc1ccccc1)c1ccccc1O [Phenyl salicylate]
> 45.8,> 45.8,COc1cc2c(cc1OC)CC(=O)N(CCCN(C)C[C@H]1Cc3cc(OC)c(OC)cc31)CC2 [Ivabradine hydrochloride]
> 45.8,> 45.8,CNNCc1ccc(C(=O)NC(C)C)cc1 [Procarbazine hydrochloride]
> 45.8,> 45.8,O=C(O)c1cc2ccccc2c(Cc2c([O-])c(C(=O)O)cc3ccccc23)c1[O-].[Na+].[Na+] [Pamoic acid disodium salt]

IC50 cell viability (ICRF193 0 nM) [µM],IC50 cell viability (ICRF193 200 nM) [µM],SMILES
> 45.8,> 45.8,Nc1nc(=O)c2c([nH]1)NCC(CNc1ccc(C(=O)N[C@@H](CCC(=O)O)C(=O)O)cc1)N2C=O (stereo partly drawn) [LEUCOVORIN CALCIUM]
> 45.8,> 45.8,CCn1cc(C(=O)O)c(=O)c2cc(F)c(N3CCNC(C)C3)c(F)c21 (stereo not drawn) [Lomefloxacin hydrochloride]
> 45.8,> 45.8,FC(F)(F)C(Cl)Br (stereo not drawn) [HALOTHANE]
> 45.8,> 45.8,CNC(=C[N+](=O)[O-])NCCSCc1csc(CN(C)C)n1 [Nizatidine]
> 45.8,> 45.8,CCCCCCCCCCC(CO)CCCCCCCC (stereo not drawn) [2-Octyl-1-dodecanol]
> 45.8,> 45.8,COc1ccc2cc1Oc1cc3c(cc1OC)CC[N+](C)(C)[C@H]3Cc1ccc(cc1)Oc1c(OC)c(OC)cc3c1[C@@H](C2)[N+](C)(C)CC3 [Metocurine iodide]
> 45.8,> 45.8,CC(=O)O[C@@H]1C[C@H]2[C@@H]3CCc4cc(OC(=O)c5ccccc5)ccc4[C@H]3CC[C@]2(C)[C@H]1OC(C)=O [Estriol benzoate diacetate]
> 45.8,> 45.8,CC1=C(/C=C/C(C)=C/C=C/C(C)=C/C(=O)Oc2c(C)c(C)c3c(c2C)CCC(C)(CCCC(C)CCCC(C)CCCC(C)C)O3)C(C)(C)CCC1 (stereo not drawn) [Tocoretinate]
> 45.8,> 45.8,COc1ccc(/C=C/C(=O)O)cc1 [4-Methoxycinnamic acid]
> 45.8,> 45.8,COc1nccnc1NS(=O)(=O)c1ccc(N)cc1 [Sulfalene]
> 45.8,> 45.8,CCN(CC)CCOC(=O)C1(c2ccccc2)CCCC1 [Caramiphen edisylate]
> 45.8,> 45.8,"COc1ccc(C(=O)c2ccccc2O)c(O)c1 [2,2'-Dihydroxy-4-methoxybenzophenone]"
> 45.8,> 45.8,CCCc1cc(C(N)=S)ccn1 [Protionamide]
> 45.8,> 45.8,CN1C(C(=O)Nc2ccccn2)=C(O)c2sc(Cl)cc2S1(=O)=O [Lornoxicam]
> 45.8,> 45.8,C[C@@H]1C[C@H]2[C@@H]3C[C@H](F)C4=CC(=O)C=C[C@]4(C)[C@@]3(F)[C@@H](O)C[C@]2(C)[C@@]1(O)C(=O)CO [Flumethasone]
> 45.8,> 45.8,CN(C(=O)CO)c1c(I)c(C(=O)NCC(O)CO)c(I)c(C(=O)NCC(O)CO)c1I (stereo not drawn) [Iomeprol]
> 45.8,> 45.8,Cc1ccccc1-c1cc(N2CCN(C)CC2)ncc1N(C)C(=O)C(C)(C)c1cc(C(F)(F)F)cc(C(F)(F)F)c1 [Netupitant]
> 45.8,> 45.8,CC(=O)Nc1c(I)c(NC(C)=O)c(I)c(C(=O)O)c1I [Diatrizoic acid dihydrate]
> 45.8,> 45.8,CN[C@@H]1[C@@H](O)[C@@H](O[C@@H]2[C@@H](O)[C@H](O[C@H]3O[C@H](CN)[C@@H](O)[C@H](O)[C@H]3O)[C@@H](N)C[C@H]2NC(=O)[C@@H](O)CN)OC[C@]1(C)O [Isepamicin]
> 45.8,> 45.8,Cc1cc(C)nc(NS(=O)(=O)c2ccc(N)cc2)n1 [Sulfamethazine]

SMILES,IC50 cell viability (ICRF193 0 nM) [µM],IC50 cell viability (ICRF193 200 nM) [µM]
CC(Cc1ccc(O)cc1)NCC(O)c1cc(O)cc(O)c1 (stereo not drawn) [Fenoterol hydrobromide],> 45.8,> 45.8
COP(=S)(OC)SCN1C(=O)c2ccccc2C1=O [Phosmet],> 45.8,> 45.8
CN1[C@@H]2CCC(C)(C)[C@H]1C[C@H](OC(=O)C(O)(c1cccs1)c1cccs1)C2 [Mazaticol],> 45.8,> 45.8

# — the supplement of paper PMC12137928
